These are literature values, as cited in US7153888B2, “Stabilization of benzoyl peroxide in solution” (Alpharx Inc., priority 2004, dated 2006).

SMILES strings stand for the structures.

Assay in data set [1]: not given
The source holds these as a separate data set.

Turning to `O=C(OOC(=O)c1ccccc1)c1ccccc1` [benzoyl peroxide], the solubility result (common solvents such as alcohol, PEG and propylene glycol) is “below 20 mg/ml”. The drop of solubility (water-miscible solvent, water content grows from 0 to 25%) is 2–4 orders of magnitude. In addition, in data set [1] (in PEG 400), the stability by solvent result is recorded as “least stable”. For the same compound, in data set [1] (in the presence of ethanol and acidic chelating agents, stored at 30° C. or 40° C.), the time until destroyed is ≤ 1 month. Further, the “first-order K value of decomposition” value in data set [1] (polyethylene glycol ointment base, 24° C.) is 0.028 day⁻¹. In addition, the “half-life (50% content decrease)” value in data set [1] (pure BP in different solvents, room temperature) is listed as 6.3 to 266 days. Also, in data set [1] (suspension in polyethylene glycol ointment base, 50° C., 5 days), the “potency of benzoyl peroxide suspension (decrease from 5%)” value was “less than 1%”.
